Results from PubChem BioAssay AID1963428 (Molecular Pharmacology Branch, DTP, NCI, 2024).

Test system: 171881-019-R-J1-PDC complex spheroid growth, % test/control
Assay: Anticancer human tumor 171881-019-R-J1-PDC patient-derived invasive breast carcinoma cell line growth inhibition [Asc]
Conditions: for IC50: curve of first compound; for viability, T/C: stronger effect = lower value
In short: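 Spheroid model: tumor line + HUVEC + hMSC. Single agents and combinations; top conc. at/near clinical Cmax (10 microM if undetermined), half-log dilutions. DMSO stocks at 800-fold test concentration.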

[1] = second compound 0.03 µM, first compound 0.0316 µM
[2] = second compound 0.03 µM, first compound 0.1 µM
[3] = second compound 0.03 µM, first compound 0.316 µM
[4] = second compound 0.03 µM, first compound 1 µM
[5] = second compound 0.03 µM, first compound 3.16 µM
[6] = second compound 0.03 µM, first compound 10 µM
[7] = second compound 0.0949 µM, first compound 0.0316 µM
[8] = second compound 0.0949 µM, first compound 0.1 µM
[9] = second compound 0.0949 µM, first compound 0.316 µM
[10] = second compound 0.0949 µM, first compound 1 µM
[11] = second compound 0.0949 µM, first compound 3.16 µM
[12] = second compound 0.0949 µM, first compound 10 µM
[13] = second compound 0.3 µM, first compound 0.0316 µM
[14] = second compound 0.3 µM, first compound 0.1 µM
[15] = second compound 0.3 µM, first compound 0.316 µM
[16] = second compound 0.3 µM, first compound 1 µM
[17] = second compound 0.3 µM, first compound 3.16 µM
[18] = second compound 0.3 µM, first compound 10 µM
[19] = second compound 0.949 µM, first compound 0.0316 µM
[20] = second compound 0.949 µM, first compound 0.1 µM
[21] = second compound 0.949 µM, first compound 0.316 µM
[22] = second compound 0.949 µM, first compound 1 µM
[23] = second compound 0.949 µM, first compound 3.16 µM
[24] = second compound 0.949 µM, first compound 10 µM
[25] = second compound 3 µM, first compound 0.0316 µM
[26] = second compound 3 µM, first compound 0.1 µM
[27] = second compound 3 µM, first compound 0.316 µM
[28] = second compound 3 µM, first compound 1 µM
[29] = second compound 3 µM, first compound 3.16 µM
[30] = second compound 3 µM, first compound 10 µM
[31] = second compound 0.03 µM, first compound 0.00316 µM
[32] = second compound 0.03 µM, first compound 0.01 µM
[33] = second compound 0.0949 µM, first compound 0.00316 µM
[34] = second compound 0.0949 µM, first compound 0.01 µM
[35] = second compound 0.3 µM, first compound 0.00316 µM
[36] = second compound 0.3 µM, first compound 0.01 µM
[37] = second compound 0.949 µM, first compound 0.00316 µM
[38] = second compound 0.949 µM, first compound 0.01 µM
[39] = second compound 3 µM, first compound 0.00316 µM
[40] = second compound 3 µM, first compound 0.01 µM
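Throughout, for viability, T/C: spheroids exposed to compounds for 7 days.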

| Structure (SMILES) | IC50 (second compound 0.03 µM) | IC50 (second compound 0.0949 µM) | IC50 (second compound 0.3 µM) | IC50 (second compound 0.949 µM) | IC50 (second compound 3 µM) | viability, T/C [1] | viability, T/C [2] | viability, T/C [3] | viability, T/C [4] | viability, T/C [7] | viability, T/C [8] | viability, T/C [9] | viability, T/C [10] | viability, T/C [13] | viability, T/C [14] | viability, T/C [15] | viability, T/C [16] | viability, T/C [19] | viability, T/C [20] | viability, T/C [21] | also measured |
| --- | --- | --- | --- | --- | --- | --- | --- | --- | --- | --- | --- | --- | --- | --- | --- | --- | --- | --- | --- | --- | --- |
| C#Cc1c(F)ccc2cc(O)cc(-c3ncc4c(N5CC6CCC(C5)N6)nc(OCC56CCCN5CC(F)C6)nc4c3F)c12 (stereo not given) + CCN1C(C(=O)NC23CCC(C(=O)O)(CC2)CC3)C(c2cccc(Cl)c2F)C2(C(=O)Nc3cc(Cl)ccc32)C12CCCCC2 | > 10 µM | > 10 µM | > 10 µM | > 10 µM | > 10 µM | 120% | 116% | 136% | 192% | 117% | 117% | 158% | 208% | 120% | 127% | 127% | 204% | 116% | 123% | 146% | viability, T/C [5]: 204%; viability, T/C [6]: 170%; viability, T/C [11]: 241%; viability, T/C [12]: 211%; viability, T/C [17]: 213%; viability, T/C [18]: 188%; viability, T/C [22]: 229%; viability, T/C [23]: 210%; viability, T/C [24]: 174%; viability, T/C [25]: 125%; viability, T/C [26]: 156%; viability, T/C [27]: 216%; viability, T/C [28]: 218%; viability, T/C [29]: 172%; viability, T/C [30]: 154% |
| C=C(F)C(=O)N1CCN(c2nc(OCC3CCCN3C)nc3c2CCN(c2cccc4cccc(Cl)c24)C3)CC1CC#N (stereo not given) + CCN1C(C(=O)NC23CCC(C(=O)O)(CC2)CC3)C(c2cccc(Cl)c2F)C2(C(=O)Nc3cc(Cl)ccc32)C12CCCCC2 | 5.96 µM | 5.86 µM | 6.18 µM | 5.79 µM | 6 µM | 107% | 105% | 104% | 110% | 99.9% | 107% | 112% | 108% | 117% | 105% | 112% | 120% | 118% | 120% | 108% | viability, T/C [5]: 122%; viability, T/C [6]: 1.23%; viability, T/C [11]: 110%; viability, T/C [12]: 0.23%; viability, T/C [17]: 141%; viability, T/C [18]: 0.58%; viability, T/C [22]: 111%; viability, T/C [23]: 104%; viability, T/C [24]: 0.88%; viability, T/C [25]: 108%; viability, T/C [26]: 103%; viability, T/C [27]: 107%; viability, T/C [28]: 113%; viability, T/C [29]: 128%; viability, T/C [30]: 0.37% |
| C=CC(=O)N1CCN(c2nc(=O)n(-c3c(C)ccnc3C(C)C)c3nc(-c4c(O)cccc4F)c(F)cc23)C(C)C1 (stereo not given) + CCN1C(C(=O)NC23CCC(C(=O)O)(CC2)CC3)C(c2cccc(Cl)c2F)C2(C(=O)Nc3cc(Cl)ccc32)C12CCCCC2 | > 10 µM | > 10 µM | > 10 µM | > 10 µM | > 10 µM | 103% | 102% | 100% | 96.8% | 93.5% | 91.7% | 107% | 112% | 116% | 105% | 105% | 109% | 96.5% | 104% | 116% | viability, T/C [5]: 102%; viability, T/C [6]: 103%; viability, T/C [11]: 94.4%; viability, T/C [12]: 109%; viability, T/C [17]: 107%; viability, T/C [18]: 90.7%; viability, T/C [22]: 106%; viability, T/C [23]: 106%; viability, T/C [24]: 116%; viability, T/C [25]: 94.2%; viability, T/C [26]: 112%; viability, T/C [27]: 103%; viability, T/C [28]: 97%; viability, T/C [29]: 99.8%; viability, T/C [30]: 107% |
| CNC(C)C(=O)NC1CN(S(=O)(=O)c2cccc(S(=O)(=O)N3CCC4CCC(C(=O)NC(c5ccccc5)c5ccccc5)N4C(=O)C(NC(=O)C(C)NC)C3)c2)CCC2CCC(C(=O)NC(c3ccccc3)c3ccccc3)N2C1=O (stereo not given) + CCN1C(C(=O)NC23CCC(C(=O)O)(CC2)CC3)C(c2cccc(Cl)c2F)C2(C(=O)Nc3cc(Cl)ccc32)C12CCCCC2 | > 1 µM | > 1 µM | > 1 µM | > 1 µM | > 1 µM | 99.1% | 93.3% | 93.7% | 93% | 94.5% | 91.7% | 109% | 90.2% | 103% | 109% | 93.5% | 100% | 113% | 88.5% | 109% | viability, T/C [31]: 91.6%; viability, T/C [32]: 103%; viability, T/C [33]: 118%; viability, T/C [34]: 96.8%; viability, T/C [35]: 113%; viability, T/C [36]: 103%; viability, T/C [37]: 109%; viability, T/C [38]: 107%; viability, T/C [22]: 102%; viability, T/C [39]: 102%; viability, T/C [40]: 115%; viability, T/C [25]: 106%; viability, T/C [26]: 90.3%; viability, T/C [27]: 100%; viability, T/C [28]: 96% |
| COc1c(OCCCN2CCOCC2)ccc2c3n(c(=NC(=O)c4cnc(N)nc4)nc12)CCN3 + CCN1C(C(=O)NC23CCC(C(=O)O)(CC2)CC3)C(c2cccc(Cl)c2F)C2(C(=O)Nc3cc(Cl)ccc32)C12CCCCC2 | 0.0357 µM | 0.0367 µM | 0.0361 µM | 0.0331 µM | 0.0297 µM | 48.1% | 25.7% | 3.58% | 1.48% | 55% | 13.6% | 3.64% | 1.16% | 53.8% | 14.6% | 3.71% | 0.99% | 50.9% | 12.8% | 3.5% | viability, T/C [31]: 158%; viability, T/C [32]: 118%; viability, T/C [33]: 182%; viability, T/C [34]: 141%; viability, T/C [35]: 143%; viability, T/C [36]: 133%; viability, T/C [37]: 159%; viability, T/C [38]: 126%; viability, T/C [22]: 1.21%; viability, T/C [39]: 171%; viability, T/C [40]: 122%; viability, T/C [25]: 46.1%; viability, T/C [26]: 9.69%; viability, T/C [27]: 2.19%; viability, T/C [28]: 1.28% |
